From patent US20030006516A1, “Optical data storage medium containing a heterocyclic azo dye as the light-absorbing compound in the information layer” (priority 2001, published 2003) come the findings set out here.

What all share (type): physicochemical
Data set [1] is described as follows: Absorption spectrum measured in solution (λmax, ε, slope width, solvatochromism). On the procedure: For a recordable optical data storage medium according to the invention which is recorded on and read using light from a blue laser, such heterocyclic azo dyes are preferred whose absorption maximum λmax2 is in the range from 420 to 550 nm, […] half the extinction value at λmax2, and the wavelength λ1/10, at which the extinction on the short-wavelength slope of the absorption maximum of the wavelength λmax2 is a tenth of the extinction value at λmax2, are preferably in each case no further than 80 nm away from each other.
For a recordable optical data storage medium according to the invention which is recorded on and read using light from a red laser, such heterocyclic azo dyes are preferred whose absorption maximum λmax2 is in the range from 500 to 650 nm, wherein the wavelength λ1/2 at which the extinction on the long-wavelength slope of the absorption maximum of the wavelength λmax2 is half the extinction value at λmax2, and the wavelength λ1/10, at which the extinction on the long-wavelength slope of the absorption maximum of the wavelength λmax2 is a tenth of the extinction value at λmax2, are preferably in each case no further than 60 nm away from each other.
At the absorption maximum λmax2 the heterocyclic azo dyes preferably have a molar extinction coefficient E of >25000 l/mol cm, preferably >35000 l/mol cm, particularly preferably >40000 l/mol cm and very particularly preferably >50000 l/mol cm.
The absorption spectra are, for example, measured in solution.
Suitable heterocyclic azo dyes having the required spectral properties are in particular those in which the change in the dipole moment Δμ=|μg−μag|, i.e. the positive difference between the dipole moments in the ground state and the first excited state is as small as possible, i.e. preferably <5 D, and particularly preferably <2 D. One method of determining such a change in the dipole moment Δμ is described for example in F. Würthner et al., Angew. Chem. 1997, 109, 2933 and in the literature cited therein. Low solvatochromism (dioxan/DMF) is also a suitable criterion for selection. Preferred heterocyclic azo dyes are those whose solvatochromism Δλ=|λDMFλdioxan|, i.e. the positive difference between the absorption wavelengths in the solvents dimethyl formamide and dioxan is <20 nm, particularly preferably <10 nm, and very particularly preferably <5 nm.

Data set [2] can be described thus: Solubility in TFP (2,2,3,3-tetrafluoropropanol). The source says:
Solubility: >2% in TFP (2,2,3,3-tetrafluoropropanol)

A short description of data set [3]: Film formation (morphology of the dye layer). The source says:
In addition to the abovementioned optical properties, the recordable information layer consisting of light-absorbing organic substances must have a morphology which is as amorphous as possible, in order to keep the noise signal during recording or reading as small as possible. For this purpose it is particularly preferable, when applying the substances by spin-coating from a solution or by vapour deposition and/or sublimation, to prevent crystallization of the light-absorbing substances during the subsequent top-coating with metallic or dielectric layers in vacuo.

For the compound `CC(C)N(c1nnc(/N=N/c2cnc(N(C)C)s2)s1)C(C)C` [Example 1], the “λ1/2-λ1/10 (long-wave slope)” value in data set [1] (Example 1, long-wave slope) worked out at 22 nm. The same compound had a ε in data set [1] (Example 1, molar extinction coefficient at λmax) of 44140 L/mol/cm. The compound also showed a λmax in data set [1] (Example 1, solvent not given) of 496 nm. Besides, in data set [1] (solvatochromism DMF vs dioxan), the “Δλ=|λDMF−λdioxan|” value was found to be 2 nm. The Solubility in data set [2] is given as above 2%. In addition, the film entry in data set [3] is given as “a glassy film”.
